The values that follow come from patent US20240239861A1, “GLUCAGON-RECEPTOR SELECTIVE POLYPEPTIDES AND METHODS OF USE THEREOF” (i2O Therapeutics, Inc., priority 2016, published 2024).

The target of one assay is human GCGR (Homo sapiens, UniProt P47871). The assay is described as follows: Peptide-receptor mediated cAMP accumulation (LANCE Ultra cAMP) in CHO-K1 cells transfected with human GCGR. The following applies: read-out: GluR pEC50 (converted). In kind it is cell-based. A general note: Changes in cAMP serve as a functional read-out for many G protein-coupled receptors.
In the next assay the target is human GLP-1R (Homo sapiens, UniProt P43220). Description: Peptide-receptor mediated cAMP accumulation (LANCE Ultra cAMP) in CHO-K1 cells transfected with human GLP-1R. In kind it is cell-based. To be noted: Table 7; GLP-1R; read-out: GLP-1R pEC50 (converted).

*1 amine or outer side, *2 acyl side, *3 side chain or, on linkers, in order; H or OH if unused. Where a SMILES comes first, the peptide text is derived from it. Side-chain parts run from the residue outwards. [ ]: non-standard residue; d: D form. The star is where a group is joined. C18 diacid = O=C(O)CCCCCCCCCCCCCCCCC(=O)*; γGlu = O=C(O)[C@H](CCC(=O)[*:2])N[*:1]; Palmitoyl = CCCCCCCCCCCCCCCC(=O)*; AEEA = NCCOCCOCC(=O)O; Aib = CC(C)(N)C(=O)O

Chain of human GCGR (P47871 26-477): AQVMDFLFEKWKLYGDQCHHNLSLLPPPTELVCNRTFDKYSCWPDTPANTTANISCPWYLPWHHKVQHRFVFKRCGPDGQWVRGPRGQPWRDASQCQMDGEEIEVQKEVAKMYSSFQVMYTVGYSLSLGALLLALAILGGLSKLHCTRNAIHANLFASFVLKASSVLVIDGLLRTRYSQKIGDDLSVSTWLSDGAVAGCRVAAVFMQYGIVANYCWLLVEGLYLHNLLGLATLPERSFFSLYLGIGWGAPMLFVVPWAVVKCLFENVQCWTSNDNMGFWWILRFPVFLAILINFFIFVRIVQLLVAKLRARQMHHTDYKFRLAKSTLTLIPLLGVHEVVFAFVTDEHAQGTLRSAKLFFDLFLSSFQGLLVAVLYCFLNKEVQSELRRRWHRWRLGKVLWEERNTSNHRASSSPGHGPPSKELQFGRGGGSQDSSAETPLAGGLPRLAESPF
Chain of human GLP-1R (P43220 24-463): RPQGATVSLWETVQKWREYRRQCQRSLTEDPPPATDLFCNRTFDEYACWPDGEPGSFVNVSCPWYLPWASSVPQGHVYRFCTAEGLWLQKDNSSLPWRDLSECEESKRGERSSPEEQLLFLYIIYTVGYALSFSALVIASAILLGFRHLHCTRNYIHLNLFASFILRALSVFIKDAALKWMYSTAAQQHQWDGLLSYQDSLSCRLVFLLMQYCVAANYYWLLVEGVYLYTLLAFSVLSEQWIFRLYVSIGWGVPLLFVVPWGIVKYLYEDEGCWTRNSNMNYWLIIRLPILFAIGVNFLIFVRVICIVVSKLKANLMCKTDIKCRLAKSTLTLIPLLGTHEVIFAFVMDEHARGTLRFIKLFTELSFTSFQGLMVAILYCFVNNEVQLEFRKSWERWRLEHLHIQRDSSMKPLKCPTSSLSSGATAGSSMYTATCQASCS

For the compound `CC(C)C[C@H](NC(=O)[C@H](Cc1ccc(O)cc1)NC(=O)[C@H](CCCCN)NC(=O)[C@H](CO)NC(=O)[C@H](Cc1ccc(O)cc1)NC(=O)[C@H](CC(=O)O)NC(=O)[C@H](CO)NC(=O)[C@@H](NC(=O)[C@H](Cc1ccccc1)NC(=O)[C@@H](NC(=O)CNC(=O)[C@H](Cc1c[nH]cn1)NC(=O)[C@H](CO)NC(=O)[C@@H](N)Cc1ccc(O)cc1)[C@@H](C)O)[C@@H](C)O)C(=O)N[C@@H](CC(=O)O)C(=O)NC(C)(C)C(=O)N[C@@H](CCCCN)C(=O)N[C@@H](CO)C(=O)N[C@@H](C)C(=O)N[C@@H](CCC(N)=O)C(=O)N[C@@H](CCC(=O)O)C(=O)N[C@@H](Cc1ccccc1)C(=O)N[C@H](C(=O)NC(C)(C)C(=O)N[C@@H](Cc1c[nH]c2ccccc12)C(=O)N[C@@H](CC(C)C)C(=O)N[C@@H](CCC(=O)O)C(=O)N[C@@H](CC(=O)O)C(=O)N[C@@H](CCC(=O)O)C(=O)N1CCC[C@H]1C(=O)N[C@@H](CO)C(=O)N[C@@H](CO)C(=O)N[C@@H](CCCCNC(=O)COCCOCCNC(=O)COCCOCCNC(=O)CC[C@H](NC(=O)CCCCCCCCCCCCCCCCC(=O)O)C(=O)O)C(=O)N[C@@H](C)C(=O)N1CCC[C@H]1C(=O)N1CCC[C@H]1C(=O)N1CCC[C@H]1C(=O)N[C@@H](CO)C(=O)O)C(C)C` [Compound B13], the EC50 was 0.631 nM on human GCGR and greater than 1000 nM at human GLP-1R.

`CC(C)C[C@H](NC(=O)[C@H](Cc1ccc(O)cc1)NC(=O)[C@H](CCCCN)NC(=O)[C@H](CO)NC(=O)[C@H](CCCCNC(=O)COCCOCCNC(=O)COCCOCCNC(=O)CC[C@H](NC(=O)CCCCCCCCCCCCCCCCC(=O)O)C(=O)O)NC(=O)[C@H](CC(=O)O)NC(=O)[C@H](CO)NC(=O)[C@@H](NC(=O)[C@H](Cc1ccccc1)NC(=O)[C@@H](NC(=O)CNC(=O)[C@H](Cc1c[nH]cn1)NC(=O)[C@H](CO)NC(=O)[C@@H](N)Cc1ccc(O)cc1)[C@@H](C)O)[C@@H](C)O)C(=O)N[C@@H](CC(=O)O)C(=O)NC(C)(C)C(=O)N[C@@H](CCCCN)C(=O)N[C@@H](CO)C(=O)N[C@@H](C)C(=O)N[C@@H](CCC(N)=O)C(=O)N[C@@H](CCC(=O)O)C(=O)N[C@@H](Cc1ccccc1)C(=O)N[C@H](C(=O)NC(C)(C)C(=O)N[C@@H](Cc1c[nH]c2ccccc12)C(=O)N[C@@H](CC(C)C)C(=O)N[C@@H](CCC(=O)O)C(=O)N[C@@H](CC(=O)O)C(=O)N[C@@H](CCC(=O)O)C(=O)N1CCC[C@H]1C(=O)N[C@@H](CO)C(=O)N[C@@H](CO)C(=O)NCC(=O)N[C@@H](C)C(=O)N1CCC[C@H]1C(=O)N1CCC[C@H]1C(=O)N1CCC[C@H]1C(=O)N[C@@H](CO)C(=O)O)C(C)C` [Compound B16] (H-YSHGTFTSDK([AEEA-AEEA-γGlu-C18 diacid])SKYLD[Aib]KSAQEFV[Aib]WLEDEPSSGAPPPS-OH): the EC50 is 3.16 nM at human GCGR and 5.01 nM at human GLP-1R.

For the compound `CCCCCCCCCCCCCCCC(=O)N[C@@H](CCC(=O)NCCCC[C@H](NC(=O)[C@H](CO)NC(=O)[C@H](CO)NC(=O)[C@@H]1CCCN1C(=O)[C@H](CCC(=O)O)NC(=O)[C@H](CC(=O)O)NC(=O)[C@H](CCC(=O)O)NC(=O)[C@H](CC(C)C)NC(=O)[C@H](Cc1c[nH]c2ccccc12)NC(=O)C(C)(C)NC(=O)[C@@H](NC(=O)[C@H](Cc1ccccc1)NC(=O)[C@H](CCC(=O)O)NC(=O)[C@H](CCC(N)=O)NC(=O)[C@H](C)NC(=O)[C@H](CCCNC(=N)N)NC(=O)[C@H](CCCCN)NC(=O)C(C)(C)NC(=O)[C@H](CC(=O)O)NC(=O)[C@H](CC(C)C)NC(=O)[C@H](Cc1ccc(O)cc1)NC(=O)[C@H](CCCCN)NC(=O)[C@H](CO)NC(=O)[C@H](Cc1ccc(O)cc1)NC(=O)[C@H](CC(=O)O)NC(=O)[C@H](CO)NC(=O)[C@@H](NC(=O)[C@H](Cc1ccccc1)NC(=O)[C@@H](NC(=O)CNC(=O)[C@H](CCC(N)=O)NC(=O)[C@H](CO)NC(=O)[C@@H](N)Cc1c[nH]c2ccccc12)[C@@H](C)O)[C@@H](C)O)C(C)C)C(=O)N[C@@H](C)C(=O)N1CCC[C@H]1C(=O)N1CCC[C@H]1C(=O)N1CCC[C@H]1C(=O)N[C@@H](CO)C(=O)O)C(=O)O` [Compound B17] (H-WSQGTFTSDYSKYLD[Aib]KRAQEFV[Aib]WLEDEPSSK([γGlu-Palmitoyl])APPPS-OH), the EC50 at human GCGR was 0.0316 nM; on human GLP-1R, greater than 1000 nM.

Consider `CCCCCCCCCCCCCCCC(=O)N[C@@H](CCC(=O)NCCCC[C@H](NC(=O)[C@@H](NC(=O)[C@H](Cc1ccccc1)NC(=O)[C@H](CCC(=O)O)NC(=O)[C@H](CCC(N)=O)NC(=O)[C@H](C)NC(=O)[C@H](CCCNC(=N)N)NC(=O)[C@H](CCCCN)NC(=O)C(C)(C)NC(=O)[C@H](CC(=O)O)NC(=O)[C@H](CC(C)C)NC(=O)[C@H](Cc1ccc(O)cc1)NC(=O)[C@H](CCCCN)NC(=O)[C@H](CO)NC(=O)[C@H](Cc1ccc(O)cc1)NC(=O)[C@H](CC(=O)O)NC(=O)[C@H](CO)NC(=O)[C@@H](NC(=O)[C@H](Cc1ccccc1)NC(=O)[C@@H](NC(=O)CNC(=O)[C@H](CCC(N)=O)NC(=O)[C@H](CO)NC(=O)[C@@H](N)Cc1c[nH]c2ccccc12)[C@@H](C)O)[C@@H](C)O)C(C)C)C(=O)N[C@@H](Cc1c[nH]c2ccccc12)C(=O)N[C@@H](CC(C)C)C(=O)N[C@@H](CCC(=O)O)C(=O)N[C@@H](CC(=O)O)C(=O)N[C@@H](CCC(=O)O)C(=O)N1CCC[C@H]1C(=O)N[C@@H](CO)C(=O)N[C@@H](CO)C(=O)NCC(=O)N[C@@H](C)C(=O)N1CCC[C@H]1C(=O)N1CCC[C@H]1C(=O)N1CCC[C@H]1C(=O)N[C@@H](CO)C(=O)O)C(=O)O` [Compound B18] (H-WSQGTFTSDYSKYLD[Aib]KRAQEFVK([γGlu-Palmitoyl])WLEDEPSSGAPPPS-OH), for which the EC50 at human GCGR is 0.0631 nM; on human GLP-1R it was greater than 1000 nM.

Consider `CCCCCCCCCCCCCCCC(=O)N[C@@H](CCC(=O)NCCCC[C@H](NC(=O)[C@H](CC(=O)O)NC(=O)[C@H](CC(C)C)NC(=O)[C@H](Cc1ccc(O)cc1)NC(=O)[C@H](CCCCN)NC(=O)[C@H](CO)NC(=O)[C@H](Cc1ccc(O)cc1)NC(=O)[C@H](CC(=O)O)NC(=O)[C@H](CO)NC(=O)[C@@H](NC(=O)[C@H](Cc1ccccc1)NC(=O)[C@@H](NC(=O)CNC(=O)[C@H](CCC(N)=O)NC(=O)[C@H](CO)NC(=O)[C@@H](N)Cc1c[nH]c2ccccc12)[C@@H](C)O)[C@@H](C)O)C(=O)N[C@@H](CCCCN)C(=O)N[C@@H](CCCNC(=N)N)C(=O)N[C@@H](C)C(=O)N[C@@H](CCC(N)=O)C(=O)N[C@@H](CCC(=O)O)C(=O)N[C@@H](Cc1ccccc1)C(=O)N[C@H](C(=O)NC(C)(C)C(=O)N[C@@H](Cc1c[nH]c2ccccc12)C(=O)N[C@@H](CC(C)C)C(=O)N[C@@H](CCC(=O)O)C(=O)N[C@@H](CC(=O)O)C(=O)N[C@@H](CCC(=O)O)C(=O)N1CCC[C@H]1C(=O)N[C@@H](CO)C(=O)N[C@@H](CO)C(=O)NCC(=O)N[C@@H](C)C(=O)N1CCC[C@H]1C(=O)N1CCC[C@H]1C(=O)N1CCC[C@H]1C(=O)N[C@@H](CO)C(=O)O)C(C)C)C(=O)O` [Compound B19] (H-WSQGTFTSDYSKYLDK([γGlu-Palmitoyl])KRAQEFV[Aib]WLEDEPSSGAPPPS-OH), for which the EC50 at human GCGR was 0.0251 nM; on human GLP-1R, 501 nM.

For `CCCCCCCCCCCCCCCC(=O)N[C@@H](CCC(=O)NCCCC[C@H](NC(=O)[C@H](CC(=O)O)NC(=O)[C@H](CO)NC(=O)[C@@H](NC(=O)[C@H](Cc1ccccc1)NC(=O)[C@@H](NC(=O)CNC(=O)[C@H](CCC(N)=O)NC(=O)[C@H](CO)NC(=O)[C@@H](N)Cc1c[nH]c2ccccc12)[C@@H](C)O)[C@@H](C)O)C(=O)N[C@@H](CO)C(=O)N[C@@H](CCCCN)C(=O)N[C@@H](Cc1ccc(O)cc1)C(=O)N[C@@H](CC(C)C)C(=O)N[C@@H](CC(=O)O)C(=O)NC(C)(C)C(=O)N[C@@H](CCCCN)C(=O)N[C@@H](CCCNC(=N)N)C(=O)N[C@@H](C)C(=O)N[C@@H](CCC(N)=O)C(=O)N[C@@H](CCC(=O)O)C(=O)N[C@@H](Cc1ccccc1)C(=O)N[C@H](C(=O)NC(C)(C)C(=O)N[C@@H](Cc1c[nH]c2ccccc12)C(=O)N[C@@H](CC(C)C)C(=O)N[C@@H](CCC(=O)O)C(=O)N[C@@H](CC(=O)O)C(=O)N[C@@H](CCC(=O)O)C(=O)N1CCC[C@H]1C(=O)N[C@@H](CO)C(=O)N[C@@H](CO)C(=O)NCC(=O)N[C@@H](C)C(=O)N1CCC[C@H]1C(=O)N1CCC[C@H]1C(=O)N1CCC[C@H]1C(=O)N[C@@H](CO)C(=O)O)C(C)C)C(=O)O` [Compound B20] (H-WSQGTFTSDK([γGlu-Palmitoyl])SKYLD[Aib]KRAQEFV[Aib]WLEDEPSSGAPPPS-OH), the EC50 at human GCGR is 0.00794 nM; on human GLP-1R it was 316 nM.

On to `CC(C)C[C@H](NC(=O)[C@H](Cc1ccc(O)cc1)NC(=O)[C@H](CCCCN)NC(=O)[C@H](CO)NC(=O)[C@H](Cc1ccc(O)cc1)NC(=O)[C@H](CC(=O)O)NC(=O)[C@H](CO)NC(=O)[C@@H](NC(=O)[C@H](Cc1ccccc1)NC(=O)[C@@H](NC(=O)CNC(=O)[C@H](CCC(N)=O)NC(=O)[C@H](CO)NC(=O)[C@@H](N)Cc1c[nH]c2ccccc12)[C@@H](C)O)[C@@H](C)O)C(=O)N[C@@H](CC(=O)O)C(=O)N[C@@H](CCCCNC(=O)COCCOCCNC(=O)COCCOCCNC(=O)CC[C@H](NC(=O)CCCCCCCCCCCCCCCCC(=O)O)C(=O)O)C(=O)N[C@@H](CCCCN)C(=O)N[C@@H](CCCNC(=N)N)C(=O)N[C@@H](C)C(=O)N[C@@H](CCC(N)=O)C(=O)N[C@@H](CCC(=O)O)C(=O)N[C@@H](Cc1ccccc1)C(=O)N[C@H](C(=O)NC(C)(C)C(=O)N[C@@H](Cc1c[nH]c2ccccc12)C(=O)N[C@@H](CC(C)C)C(=O)N[C@@H](CCC(=O)O)C(=O)N[C@@H](CC(=O)O)C(=O)N[C@@H](CCC(=O)O)C(=O)N1CCC[C@H]1C(=O)N[C@@H](CO)C(=O)N[C@@H](CO)C(=O)NCC(=O)N[C@@H](C)C(=O)N1CCC[C@H]1C(=O)N1CCC[C@H]1C(=O)N1CCC[C@H]1C(=O)N[C@@H](CO)C(=O)O)C(C)C` [Compound B23] (H-WSQGTFTSDYSKYLDK([AEEA-AEEA-γGlu-C18 diacid])KRAQEFV[Aib]WLEDEPSSGAPPPS-OH), for which the EC50 on human GCGR is 0.316 nM; on human GLP-1R, 316 nM.
